The subject of assay [1] is Vero. Kind of assay: cells. In kind it is functional, cell-based. Conditions: Chlorocebus sabaeus.
Assay [2] can be described thus: A Cell-Based Counter Screen testing Compounds that Inhibit VEEV TC-83, in strain KU V3526. In kind it is functional.
The nature of assay [3]: A Cell-Based Confirmatory Screen for Compounds that Inhibit VEEV, TC-83 (8). In kind it is functional.
Assay [4] in a line: A Cell-Based Confirmatory Screen for Compounds that Inhibit VEEV, TC-83 (2). In kind it is functional.
A short description of assay [5]: A Cell-Based Confirmatory Screen for Compounds that Inhibit VEEV, TC-83 (3). In kind it is functional.
Assay [6] can be described thus: A Cell-Based Confirmatory Screen for Compounds that Inhibit VEEV, TC-83 (6). In kind it is functional.
Assay [7] can be described thus: A Cell-Based Confirmatory Screen for Compounds that Inhibit VEEV TC-83 (4). In kind it is functional.
Assay [8] is described as follows: A Cell-Based Confirmatory Screen for Compounds that Inhibit VEEV, TC-83 (7). In kind it is functional.
Assay [9] is described as follows: Luminescence Cell-Based Dose Retest to Confirm Inhibitors of Cancer Stem Cells. [Related pubchem assays (depositor defined):AID2717, AID2721]. In kind it is functional. Particulars: Homo sapiens.
The nature of assay [10]: viability loss of HMLE_sh_eGFP cells – cell-based, luminescence, counter-screen for HMLE_sh_ECad selective toxicity project, dose response (AID 463074).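 Further: HMLE human mammary epithelial cells expressing control shRNA against eGFP.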 In kind it is functional, Homo sapiens.
The target of assay [11] is G-protein coupled receptor 35 (Homo sapiens, UniProt Q9HC97). Kind of assay: SAR Analysis for the identification of Selective Antagonists of ERK1/2 Activity in GPR35-Overexpressing U2OS Cells. [Related pubchem assays: 2079, 2058 ]. In kind it is functional, cell-based.
Assay [12] concerns the target G-protein coupled receptor 55 (Homo sapiens, UniProt Q9Y2T6). As to the kind of experiment: blockers of GPR55 signalling, imaged – imaging, image-based, counter-screen for GPR35 antagonist project, SAR follow-up (AID 2397). In kind it is functional.
Assay [13] can be described thus: HEK-293T cell viability reduction – luminescence, B-cell screen hits, cytotoxicity control for BCR NF-kB inhibitor project, dose response (AID 489021).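 Further: HEK-293T cells carrying an NF-kB luciferase reporter; cells exposed to compound for about 14 hours before viability readout.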 In kind it is functional, cell-based.
Assay [14] deals with HEK293. Kind of assay: inhibition of NOD1-driven NF-kB reporter – cell-based, luminescence, uHTS, primary screen (AID 1578). In kind it is functional. Conditions: Homo sapiens.
For assay [15], the system named is HEK293. Kind of assay: cells. In kind it is functional, cell-based. Conditions: Homo sapiens.
In assay [16] the test system is HEK293. As to the kind of experiment: cells. In kind it is functional, cell-based. Particulars: Homo sapiens. This is another data set of the same source.
Assay [17] concerns HEK293. Kind of assay: NOD2 signaling inhibitors in MDP-stimulated cells, cell-based, uHTS, luminescence (AID 2001). In kind it is functional. Conditions: Homo sapiens.
For assay [18], the target named is Tumor necrosis factor (Homo sapiens, UniProt P01375). Kind of assay: analog potency on TNFa NF-kB signaling – cell-based, revised, SAR follow-up (AID 2337). In kind it is functional.
Assay [19] addresses Nucleotide-binding oligomerization domain-containing protein 1 (Homo sapiens, UniProt Q9Y239). Kind of assay: blockers of NOD1 pathway activity – revised, SAR follow-up (AID 2333). In kind it is functional.
The target in assay [20] is Nucleotide-binding oligomerization domain-containing protein 2 (Homo sapiens, UniProt Q9HC29). Kind of assay: PubChem AID 2334. In kind it is functional.
For assay [21], the target named is T1, Long-chain-fatty-acid--AMP ligase FadD28 (Mycobacterium tuberculosis, UniProt P9WQ59).
T1 sequence (P9WQ59 whole entry): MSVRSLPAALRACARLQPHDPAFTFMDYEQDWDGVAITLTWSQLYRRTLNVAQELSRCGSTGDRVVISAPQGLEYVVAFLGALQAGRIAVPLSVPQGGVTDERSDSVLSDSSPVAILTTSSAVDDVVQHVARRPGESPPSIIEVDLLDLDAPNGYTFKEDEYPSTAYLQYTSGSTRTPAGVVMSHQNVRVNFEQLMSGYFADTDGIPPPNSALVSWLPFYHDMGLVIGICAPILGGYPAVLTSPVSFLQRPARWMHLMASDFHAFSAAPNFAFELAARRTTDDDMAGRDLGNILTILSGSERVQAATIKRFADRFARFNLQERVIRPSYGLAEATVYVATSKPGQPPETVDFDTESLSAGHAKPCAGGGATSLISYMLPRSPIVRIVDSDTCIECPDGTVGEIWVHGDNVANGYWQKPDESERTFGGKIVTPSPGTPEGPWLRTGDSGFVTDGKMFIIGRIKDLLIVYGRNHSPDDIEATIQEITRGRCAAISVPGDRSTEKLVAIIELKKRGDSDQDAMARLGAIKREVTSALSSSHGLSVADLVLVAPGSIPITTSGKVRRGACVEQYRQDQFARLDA
As to the kind of experiment: Fluorescence polarization aasay to screen for inhibitors that compete for the binding of FadD28 to a bisubstrate Measured in Biochemical System Using Plate Reader - 2147-01_Inhibitor_Dose_CherryPick_Activity. In kind it is functional, Mycobacterium tuberculosis H37Rv.

The subject of assay [22] is HEK293. Kind of assay: cells. Particulars: Homo sapiens.
Assay [23] deals with Escherichia coli. Kind of assay: microbe, parasite or virus in culture.

This note sets out measurements from ChEMBL document CHEMBL1201862, “PubChem BioAssay data set” (2004).

Several values for one entry are separate records, joined by “and”; a condition that tells them apart may be missing. Equal values may be shown once. Activity calls are given as the source filed them.

Nucleotide-binding oligomerization domain-containing protein 1, sequence (Q9Y239 whole entry, the tested form may be a part): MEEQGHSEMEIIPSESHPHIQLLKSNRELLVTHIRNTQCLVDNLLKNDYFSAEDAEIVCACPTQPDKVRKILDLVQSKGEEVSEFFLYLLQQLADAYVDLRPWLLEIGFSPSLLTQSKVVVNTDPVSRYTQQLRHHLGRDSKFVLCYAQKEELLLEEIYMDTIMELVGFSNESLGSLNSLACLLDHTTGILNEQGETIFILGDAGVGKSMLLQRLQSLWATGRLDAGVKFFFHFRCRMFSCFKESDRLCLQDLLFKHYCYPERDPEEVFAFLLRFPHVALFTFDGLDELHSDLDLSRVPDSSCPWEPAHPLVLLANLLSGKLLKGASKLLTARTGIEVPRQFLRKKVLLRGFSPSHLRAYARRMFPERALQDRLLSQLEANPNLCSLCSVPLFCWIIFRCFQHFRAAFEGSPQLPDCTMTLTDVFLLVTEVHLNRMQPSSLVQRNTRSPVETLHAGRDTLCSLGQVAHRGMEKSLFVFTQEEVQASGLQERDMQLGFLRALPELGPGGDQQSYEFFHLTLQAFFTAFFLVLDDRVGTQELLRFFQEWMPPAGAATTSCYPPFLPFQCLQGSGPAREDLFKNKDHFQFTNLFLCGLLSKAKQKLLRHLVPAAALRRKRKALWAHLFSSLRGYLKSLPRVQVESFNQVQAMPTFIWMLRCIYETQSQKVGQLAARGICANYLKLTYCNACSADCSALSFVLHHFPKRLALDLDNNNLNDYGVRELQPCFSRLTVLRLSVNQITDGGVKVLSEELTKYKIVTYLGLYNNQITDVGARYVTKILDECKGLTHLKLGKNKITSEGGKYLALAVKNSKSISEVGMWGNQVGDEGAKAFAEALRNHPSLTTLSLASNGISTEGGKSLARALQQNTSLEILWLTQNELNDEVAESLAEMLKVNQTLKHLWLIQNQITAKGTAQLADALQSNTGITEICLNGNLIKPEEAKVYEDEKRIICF
Nucleotide-binding oligomerization domain-containing protein 2, sequence (Q9HC29 whole entry, the tested form may be a part): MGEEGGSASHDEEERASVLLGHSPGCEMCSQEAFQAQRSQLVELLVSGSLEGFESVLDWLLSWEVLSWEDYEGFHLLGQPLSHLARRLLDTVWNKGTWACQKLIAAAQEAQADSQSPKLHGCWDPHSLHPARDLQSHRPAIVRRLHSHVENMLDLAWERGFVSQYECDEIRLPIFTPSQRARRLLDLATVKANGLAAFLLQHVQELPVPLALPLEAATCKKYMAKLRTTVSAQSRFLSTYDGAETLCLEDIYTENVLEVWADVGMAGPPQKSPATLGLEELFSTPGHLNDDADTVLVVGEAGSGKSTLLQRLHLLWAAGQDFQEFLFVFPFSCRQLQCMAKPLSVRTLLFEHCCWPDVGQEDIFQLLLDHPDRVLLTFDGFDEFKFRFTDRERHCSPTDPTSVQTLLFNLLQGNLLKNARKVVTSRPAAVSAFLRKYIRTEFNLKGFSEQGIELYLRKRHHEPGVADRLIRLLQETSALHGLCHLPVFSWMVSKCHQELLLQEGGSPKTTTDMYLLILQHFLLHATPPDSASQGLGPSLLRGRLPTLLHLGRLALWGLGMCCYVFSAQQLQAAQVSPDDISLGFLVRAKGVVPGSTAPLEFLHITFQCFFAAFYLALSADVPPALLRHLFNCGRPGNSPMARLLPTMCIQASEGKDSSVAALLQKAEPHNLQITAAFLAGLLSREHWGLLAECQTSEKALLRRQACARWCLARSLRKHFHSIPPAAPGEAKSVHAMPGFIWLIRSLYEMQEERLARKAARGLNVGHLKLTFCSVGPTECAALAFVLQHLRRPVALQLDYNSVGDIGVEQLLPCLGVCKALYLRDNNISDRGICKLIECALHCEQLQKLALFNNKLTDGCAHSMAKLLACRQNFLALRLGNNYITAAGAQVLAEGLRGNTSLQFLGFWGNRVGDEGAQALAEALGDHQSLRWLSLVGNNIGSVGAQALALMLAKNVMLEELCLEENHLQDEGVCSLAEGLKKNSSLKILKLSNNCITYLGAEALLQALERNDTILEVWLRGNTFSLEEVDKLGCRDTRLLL
G-protein coupled receptor 55, sequence (Q9Y2T6 whole entry): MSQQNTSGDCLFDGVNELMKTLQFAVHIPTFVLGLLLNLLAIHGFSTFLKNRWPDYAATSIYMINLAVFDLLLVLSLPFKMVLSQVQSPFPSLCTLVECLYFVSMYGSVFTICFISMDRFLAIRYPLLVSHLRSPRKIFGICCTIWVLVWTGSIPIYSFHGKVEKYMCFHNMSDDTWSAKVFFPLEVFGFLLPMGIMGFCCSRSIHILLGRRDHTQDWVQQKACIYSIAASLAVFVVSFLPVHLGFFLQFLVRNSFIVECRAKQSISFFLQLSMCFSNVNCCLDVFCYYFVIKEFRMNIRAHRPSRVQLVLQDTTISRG
G-protein coupled receptor 35, sequence (Q9HC97 whole entry): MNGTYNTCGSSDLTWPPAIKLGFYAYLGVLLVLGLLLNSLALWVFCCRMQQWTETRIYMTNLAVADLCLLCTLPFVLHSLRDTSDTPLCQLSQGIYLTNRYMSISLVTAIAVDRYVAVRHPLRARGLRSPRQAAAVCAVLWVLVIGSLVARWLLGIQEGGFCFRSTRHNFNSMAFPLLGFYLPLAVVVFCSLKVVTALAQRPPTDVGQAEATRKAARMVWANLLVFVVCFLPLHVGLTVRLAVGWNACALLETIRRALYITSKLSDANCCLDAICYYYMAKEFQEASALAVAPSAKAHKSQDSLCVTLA
Tumor necrosis factor, sequence (P01375 whole entry, the tested form may be a part): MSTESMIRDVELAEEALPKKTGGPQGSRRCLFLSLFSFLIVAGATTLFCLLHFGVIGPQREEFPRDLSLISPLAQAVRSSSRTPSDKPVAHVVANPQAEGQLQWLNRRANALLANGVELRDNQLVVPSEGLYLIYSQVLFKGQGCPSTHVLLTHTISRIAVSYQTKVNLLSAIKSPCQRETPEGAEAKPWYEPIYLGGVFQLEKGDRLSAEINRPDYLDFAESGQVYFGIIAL

As usually defined, the IC50 is the point on the concentration scale where inhibition reaches its midpoint. Regarding `CCN1CCN(Cc2nc3ccc([N+](=O)[O-])cc3c(=O)n2-c2ccccc2F)CC1`, the IC50 in assay [1] is 1.91 µM (active); in assay [2], 0.97 µM (active); in assay [3], 810 nM (active) and 695 nM (active); in assay [4], 0.97 µM (active); in assay [5] it was < 0.96 µM (active); in assay [6] it was 1.01 µM (active). Further, the IC50 in assay [7] was 0.67 µM (active); in assay [8], 0.81 µM (active).
The term AC50 denotes the midpoint of the concentration-response curve, whichever way the signal moves. In the case of `COc1ccc(C(=O)NNc2ccccc2)cc1`, the figures for the half-maximal activity concentration (AC50) in assay [9] and in assay [10] were 9.98 µM (active) and 21.4 µM (active), respectively.
As for `COc1ccc(/C=C2/SC(=S)N(CCCC(=O)Nc3ccc(O)cc3)C2=O)cc1`, the IC50 in [11] is > 32 µM (not active); in assay [12], > 32 µM (inactive); in assay [13] it was > 80 µM (inactive).
Usually EC50 stands for the concentration that produces a half-maximal response. As for `COc1cc(/C=C2/C(=O)NN(c3cccc(Cl)c3)C2=O)cc(Br)c1O`, the concentration for a half-maximal effect (EC50) in assay [14] was 8.57 µM (active). Moreover, the IC50 in [15] is > 20 µM (inactive); in assay [16], > 20 µM (inactive); in assay [17], > 20 µM (inactive); in assay [18], > 20 µM (inactive); in [19] it was 3.49 µM (active); in assay [20] it was > 20 µM (inactive). In addition, the IC50 in assay [22] is > 20 µM (inactive). Besides, in assay [21], the AC50 was > 100 µM (inactive).
As to `COC(C(=O)Nc1ccnn1C1CCN(C(=O)c2ccc(C=O)cc2)CC1)c1ccccc1` (stereo not drawn), in assay [23], the AC50 is 26.2 µM (active).
